Laboratory results taken from US9095587B2, “Methods and compositions for improved nerve conduction velocity” (Spinifex Pharmaceuticals Pty Ltd, priority 2010, dated 2015).
“And” between values parts separate entries of the source, which are not always exact repeats. Equal entries are not always repeated. Structures can show the parent of a compound that is named as a salt.

What was measured:
diabetic rats [1] = assay: Sciatic motor nerve conduction velocity in STZ-diabetic rats; format: in vivo, rat; details: for Motor NCV, Mean: group mean of 10 diabetic rats; for Motor NCV, Mean / Motor NCV: last 2 weeks of 8 weeks diabetes; for Motor NCV: individual diabetic rats
Experimental: (§1) Methods: Diabetes was induced in mature (19 week old) male Sprague-Dawley by a single STZ injection (40-45 mg/kg i.p.). The diabetic state was monitored weekly using commercially available test strips for blood (tail vein) and urine glucose levels. Body weight was also monitored daily. The criteria for the diabetic state were: blood glucose>19.9 mM, glycosuria, and no evidence of body weight gain.
(§2) In final experiments, rats were anaesthetized with thiobutabarbital (50-100 mg kg-1 i.p.) The trachea was cannulated for artificial respiration. The level of anaesthesia was monitored by observing any reaction of blood pressure to manipulation, supplementary thiobutabarbital anaesthetic being given as necessary. As described in detail by Cameron et al., (Q. J. Expt Physiol, 74; 917-926, 1989 and Diabetes, 40:532-539, 1991), the sciatic nerve was exposed between the sciatic notch and knee. Bipolar stimulating electrodes were placed close to the nerve at the notch and knee. A concentric bipolar electrode was inserted into tibialis anterior muscle to monitor evoked electromyographic (EMG) activity. Potentials evoked from each stimulating site were averaged 8 times. Motor nerve conduction velocity (NCV) was calculated by dividing the distance between stimulating electrodes by the average latency difference between the onsets of EMG potentials evoked from the 2 sites. Nerve temperature was monitored using a thermocouple probe, and maintained in the range 36-38° C. by radiant heat. Body temperature was also maintained around 37° C. using a heated blanket.
(§3) Methods: Diabetes was induced in mature (19 week old) male Sprague-Dawley by a single STZ injection (40-45 mg/kg i.p.). The diabetic state was monitored weekly using commercially available test strips for blood (tail vein) and urine glucose levels. Body weight was also be monitored daily. The criteria for the diabetic state were: blood glucose>19.9 mM, glycosuria, and no evidence of body weight gain.
as §2, with “necessary. The” for “necessary. As described in detail by Cameron et al., (Q. J. Expt Physiol, 74; 917-926, 1989 and Diabetes, 40:532-539, 1991), the”, “averaged […]” for “averaged 8”, “Motor NCV” for “Motor nerve conduction velocity (NCV)”, “blanket. Sensory NCV was measured for sensory saphenous nerve between groin and mid-calf in a similar fashion, except that direct nerve evoked potentials were recorded at the ankle using a unipolar platinum hook electrode. Reference values for comparison of the NCV data were obtained from nondiabetic control and 8 week diabetic control rats.” for “blanket.”
(§4) Diabetes was induced in mature (19 week old) male Sprague-Dawley by a single STZ injection (40-45 mg/kg i.p.). The diabetic state was monitored weekly using commercially available test strips for blood (tail vein) and urine glucose levels. Body weight was also monitored daily. The criteria for the diabetic state were: blood glucose>19.9 mM, glycosuria, and no evidence of body weight gain.
In final experiments, rats were anaesthetized with thiobutabarbital (50-100 mg kg-1 i.p.) The trachea was cannulated for artificial respiration. […]

diabetic rats [2] = assay: Saphenous sensory nerve conduction velocity in STZ-diabetic rats; format: in vivo, rat; details: for Sensory NCV, Mean: group mean of 10 diabetic rats; for Sensory NCV, Mean / Sensory NCV: last 2 weeks of 8 weeks diabetes; for Sensory NCV: individual diabetic rats
Experimental: as §1
Sensory NCV was measured for sensory saphenous nerve between groin and mid-calf in a similar fashion, except that direct nerve evoked potentials were recorded at the ankle using a unipolar platinum hook electrode.
as §3
as §2, with “necessary. The” for “necessary. As described in detail by Cameron et al., (Q. J. Expt Physiol, 74; 917-926, 1989 and Diabetes, 40:532-539, 1991), the”, “averaged […]” for “averaged 8”, “Motor NCV” for “Motor nerve conduction velocity (NCV)”, “blanket. Sensory NCV was measured for sensory saphenous nerve between groin and mid-calf in a similar fashion, except that direct nerve evoked potentials were recorded at the ankle using a unipolar platinum hook electrode. Reference values for comparison of the NCV data were obtained from nondiabetic control and 8 week diabetic control rats.” for “blanket.”
as §4
as §2, with “The” for “As described in detail by Cameron et al., (Q. J. Expt Physiol, 74; 917-926, 1989 and Diabetes, 40:532-539, 1991), the”, “NCV” for “nerve conduction velocity (NCV)”, “blanket. Sensory NCV was measured for sensory saphenous nerve between groin and mid-calf in a similar fashion, except that direct nerve evoked potentials were recorded at the ankle using a unipolar platinum hook electrode. […]” for “blanket.”

[3] = Body weight, blood glucose and general condition of treated diabetic rats; format: in vivo, rat; details: for End weight, Mean: group mean of 10 diabetic rats; for End weight, Mean / End weight: last 2 weeks of 8 weeks diabetes; for End weight: individual diabetic rats
Experimental: as §1, §3

diabetic rats [4] = assay: Thermal hyperalgesia, Hargreaves plantar test, diabetic rats; format: in vivo, rat
Experimental: as §4
Tactile allodynia thresholds for the foot were measured by an electronic von Frey hair apparatus. Latencies for foot withdrawal reflexes to noxious thermal stimulation were estimated by the Hargreaves plantar test (Hargreaves K, Dubner R, Brown F, Flores C, Joris J. A new and sensitive method for measuring thermal nociception in cutaneous hypeialgesia. Pain 1988; 32: 77-88). All tests were carried out using commercially available equipment (Ugo-Basile, Comerio, Italy). Measurements were made in a constant temperature room at the same time each day, and rats were given a 3-day period for familiarization with handling, the environment, equipment, and experimental procedure.
In a similar way to the assessment of tactile allodynia, thermal sensitivity was also measured on 2 separate occasions, before and after treatment. […] After 30 min acclimatization, a constant power infrared stimulus was focused onto the sole of the foot and the latency for reflex foot withdrawal recorded via a photoelectric monitor. […]

diabetic rats [5] = assay: Tactile allodynia, electronic von Frey hair apparatus, diabetic rats; format: in vivo, rat
Experimental: as §4
Tactile allodynia thresholds for the foot were measured by an electronic von Frey hair apparatus. Latencies for foot withdrawal reflexes to noxious thermal stimulation were estimated by the Hargreaves plantar test (Hargreaves K, Dubner R, Brown F, Flores C, Joris J. A new and sensitive method for measuring thermal nociception in cutaneous hypeialgesia. Pain 1988; 32: 77-88). All tests were carried out using commercially available equipment (Ugo-Basile, Comerio, Italy). […]
Tactile allodynia was estimated on two separate occasions; once on a day before treatment was initiated, and then on the day immediately following the last day of the treatment period. […] Thus, stimulus intensity tracked the threshold, and a run of 6 near-threshold responses was used to estimate the 50% threshold value using lookup tables (Chaplan S R, Bach F W, Pogrel J W, Chung J M, Yaksh T L. Quantitative assessment of tactile allodynia in the rat paw. J Neurosci Meth 1994; 53: 55-63). […]

[6] = target: T1, AT1 (h) human recombinant (CHO cells) (Homo sapiens, UniProt P30556); assay: AT1 (h) receptor binding assay; details: [125I][Sar1, Ile8]-AT II 0.05 nM, 60 min./37° C.; highest tested concentration
T1 construct: expressed in transfected cells; host or cells: CHO cells
T1 sequence (P30556 1-359): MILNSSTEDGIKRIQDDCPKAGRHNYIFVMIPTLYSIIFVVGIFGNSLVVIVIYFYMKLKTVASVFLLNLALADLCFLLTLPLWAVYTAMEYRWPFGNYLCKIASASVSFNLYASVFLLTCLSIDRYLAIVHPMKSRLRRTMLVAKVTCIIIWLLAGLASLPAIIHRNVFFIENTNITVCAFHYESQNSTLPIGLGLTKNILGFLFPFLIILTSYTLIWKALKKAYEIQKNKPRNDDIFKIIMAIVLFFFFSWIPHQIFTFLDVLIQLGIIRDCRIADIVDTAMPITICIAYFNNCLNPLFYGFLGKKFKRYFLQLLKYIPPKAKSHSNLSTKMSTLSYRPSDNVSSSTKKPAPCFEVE
Experimental: (§5) The specific ligand binding to the receptors is defined as the difference between the total binding and the nonspecific binding determined in the presence of an excess of unlabelled ligand. […] The IC50 values (concentration causing a half-maximal inhibition of control specific binding) and Hill coefficients (nH) were determined by non-linear regression analysis of the competition curves using Hill equation curve fitting. The inhibition constants (Ki) were calculated from the Cheng Prusoff equation (Ki=IC50/(1+(L/KD)), where L=concentration of radioligand in the assay, and KD=affinity of the radioligand for the receptor).

[7] = target: AT2 (h) human recombinant (Hela cells) (Homo sapiens, UniProt P50052); details: competition curve, Hill equation curve fitting
Sequence of AT2 (h) human recombinant (Hela cells) (P50052 whole entry): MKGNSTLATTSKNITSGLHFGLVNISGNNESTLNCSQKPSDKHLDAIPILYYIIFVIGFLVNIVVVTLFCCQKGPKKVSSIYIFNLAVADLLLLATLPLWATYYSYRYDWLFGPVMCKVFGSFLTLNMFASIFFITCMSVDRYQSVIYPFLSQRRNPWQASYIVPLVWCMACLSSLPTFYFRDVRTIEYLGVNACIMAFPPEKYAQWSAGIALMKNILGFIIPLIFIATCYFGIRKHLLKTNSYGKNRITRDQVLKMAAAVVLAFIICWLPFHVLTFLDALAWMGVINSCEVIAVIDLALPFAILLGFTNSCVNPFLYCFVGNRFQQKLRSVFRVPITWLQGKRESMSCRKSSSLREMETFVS
Experimental: as §5

[8] = 1.048 mg/kg daily by oral gavage
[9] = 1.048 mg/kg daily by oral gavage, 28 days
[10] = 0.01048 mg/kg daily by gavage, 0.01048 mg/kg
[11] = 0.0349 mg/kg daily by gavage, 0.0349 mg/kg
[12] = 0.1048 mg/kg daily by gavage, 0.1048 mg/kg
[13] = 1.048 mg/kg daily by gavage, 1.048 mg/kg
[14] = 1.048 mg/kg daily by gavage for 2 weeks
[15] = 1.048 mg/kg by oral gavage, 1 day, before vs after drug

## COc1ccc2c(c1OCc1ccccc1)C[C@@H](C(=O)O)N(C(=O)C(c1ccccc1)c1ccccc1)C2 [Compound 1 sodium salt, S-2-(diphenylacetyl)-5-benzyloxy-6-methoxy-1,2,3,4-tetrahydroisoquinoline-3-carboxylic acid]
Diabetic rats [1]; [8]
  treatment duration after which motor NCV was statistically within the nondiabetic range: 7 days
Diabetic rats [1]; [9]
  motor NCV, 28-day treatment group versus 14-day data: entirely comparable with the previously obtained 14-day data
Diabetic rats [1]; Rattus norvegicus, 336 h, oral, daily for 2 weeks, best fit sigmoid curve, read-out: ED50, correction of sciatic motor NCV deficit
  ED50: 0.044 mg/kg
Diabetic rats [1]; 0.01048 mg/kg daily by gavage
  Motor NCV, Mean: 53.25 m/s
Diabetic rats [1]; 0.0349 mg/kg daily by gavage
  Motor NCV, Mean: 56.68 m/s
Diabetic rats [1]; 0.1048 mg/kg daily by gavage
  Motor NCV, Mean: 60.51 m/s
Diabetic rats [1]; 1.048 mg/kg daily by gavage
  Motor NCV, Mean: 63.72 m/s
Diabetic rats [1]; [10]
  Motor NCV: 54.92 m/s and 55.17 m/s and 54.10 m/s and 50.78 m/s and 54.03 m/s and 51.60 m/s and 51.96 m/s and 56.90 m/s and 50.70 m/s and 52.38 m/s
Diabetic rats [1]; [11]
  Motor NCV: 56.15 m/s and 57.38 m/s and 56.90 m/s and 57.89 m/s and 59.32 m/s and 56.67 m/s and 53.68 m/s and 58.18 m/s and 54.55 m/s and 56.06 m/s
Diabetic rats [1]; [12]
  Motor NCV: 59.13 m/s and 61.48 m/s and 60.00 m/s (2×) and 58.62 m/s and 63.63 m/s and 64.15 m/s and 59.02 m/s and 60.78 m/s and 58.33 m/s
Diabetic rats [1]; [13]
  Motor NCV: 62.87 m/s and 62.30 m/s and 62.84 m/s and 62.50 m/s and 63.90 m/s and 62.69 m/s and 64.95 m/s and 61.75 m/s and 69.57 m/s and 63.81 m/s
Diabetic rats [2]; 1.048 mg/kg daily by gavage for 2 weeks, p<0.001, vs reference groups
  diabetic deficit corrected, saphenous sensory NCV: 99.1±5.0%
Diabetic rats [2]; [8]
  treatment duration after which sensory NCV was statistically within the nondiabetic range: 3 days
Diabetic rats [2]; [9]
  sensory NCV, 28-day treatment group versus 14-day data: entirely comparable with the previously obtained 14-day data
Diabetic rats [2]; Rattus norvegicus, 336 h, oral, daily for 2 weeks, best fit sigmoid curve, read-out: ED50, correction of saphenous sensory NCV deficit
  ED50: 0.02 mg/kg
Diabetic rats [2]; 0.01048 mg/kg daily by gavage
  Sensory NCV, Mean: 53.93 m/s
Diabetic rats [2]; 0.0349 mg/kg daily by gavage
  Sensory NCV, Mean: 57.25 m/s
Diabetic rats [2]; 0.1048 mg/kg daily by gavage
  Sensory NCV, Mean: 60.73 m/s
Diabetic rats [2]; 1.048 mg/kg daily by gavage
  Sensory NCV, Mean: 61.10 m/s
Diabetic rats [2]; [10]
  Sensory NCV: 55.47 m/s and 56.07 m/s and 51.59 m/s and 54.39 m/s and 55.30 m/s and 51.82 m/s and 51.85 m/s and 55.81 m/s and 53.85 m/s and 53.19 m/s
Diabetic rats [2]; [11]
  Sensory NCV: 57.43 m/s and 57.94 m/s and 55.60 m/s and 59.95 m/s and 56.00 m/s and 57.50 m/s and 55.93 m/s and 57.73 m/s and 57.72 m/s and 56.72 m/s
Diabetic rats [2]; [12]
  Sensory NCV: 61.11 m/s and 62.96 m/s and 61.22 m/s and 56.67 m/s and 63.16 m/s and 62.50 m/s (2×) and 63.04 m/s and 58.33 m/s and 55.83 m/s
Diabetic rats [2]; [13]
  Sensory NCV: 62.50 m/s (4×) and 60.63 m/s and 60.41 m/s and 60.71 m/s and 57.57 m/s and 60.98 m/s and 60.74 m/s
[3]; [14]
  condition of animals at the end of the experimental period: in good condition and behaviourally alert
[3]; 0.1048, 0.0349 or 0.01048 mg/kg daily by gavage for 2 weeks
  condition of animals at the end of the experimental period: in good condition and behaviourally alert
[3]; 0.01048 mg/kg daily by gavage
  End weight, Mean: 372 g
[3]; 0.0349 mg/kg daily by gavage
  End weight, Mean: 357 g
[3]; 0.1048 mg/kg daily by gavage
  End weight, Mean: 369 g
[3]; 1.048 mg/kg daily by gavage
  End weight, Mean: 390 g
[3]; [10]
  End weight: 374 g and 436 g and 346 g and 438 g and 349 g and 329 g and 364 g and 385 g and 386 g and 312 g
[3]; [11]
  End weight: 369 g and 427 g and 400 g and 396 g and 332 g and 307 g and 277 g and 327 g and 368 g (2×)
[3]; [12]
  End weight: 398 g and 363 g and 298 g and 315 g and 357 g and 346 g and 392 g and 405 g and 374 g and 440 g
[3]; [13]
  End weight: 429 g and 380 g and 389 g and 393 g and 390 g and 353 g and 366 g and 418 g and 360 g and 425 g
Diabetic rats [4]; [15]
  effect on thermal hyperalgesia of only 1 day of treatment (paired Student's t): significant, albeit partial
Diabetic rats [4]; [8]
  treatment duration to full correction of thermal hyperalgesia: 3 days
Diabetic rats [5]; [15]
  effect on tactile allodynia of only 1 day of treatment (paired Student's t): significant, albeit partial
Diabetic rats [5]; [8]
  treatment duration to full correction of tactile allodynia: 3 days

## COc1ccc2c(c1OCc1ccccc1)C[C@@H](C(=O)O)N(C(=O)C(c1ccccc1)c1ccccc1)C2 [Compound 1, S-2-(diphenylacetyl)-5-benzyloxy-6-methoxy-1,2,3,4-tetrahydroisoquinoline-3-carboxylic acid]
Diabetic rats [1]; [14]
  sciatic motor NCV compared with nondiabetic control group (one way ANOVA, Bonferroni test): not significantly different
Diabetic rats [1]; 1.048 mg/kg daily by gavage for 2 weeks, vs nondiabetic and diabetic reference groups
  reversal of the diabetic deficit, sciatic motor NCV: 92.6±5.4%
[6]
  Flags (IC50 determination): N.C. (Not calculable. IC50 value is not calculable because of less than 25% inhibition at the highest tested concentration.)
[7]
  nH (Hill coefficient): 1.3
